Experimental data published in ChEMBL document CHEMBL1201862, “PubChem BioAssay data set” (2004).
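Growth conditions: 96-well plates. Treatment: test compound, 48 hours, 5 concentrations. Analysis: linear interpolation between bracketing concentrations; unreached endpoints set to highest concentration. Here, GI50 denotes the concentration required for 50% inhibition of growth.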 Active and inactive are the calls of the source. Rule as the data show it: active = GI50 up to about 1.1 µM and inactive = higher.

Key:
Test in all cases: NCI tumour cell line growth inhibition, 48 h
[1] = tested on: TK-10
[2] = tested on: SF-268
[3] = tested on: SN12C
[4] = tested on: A498
[5] = tested on: MOLT-4
[6] = tested on: KM12
[7] = tested on: NCI-H23
[8] = tested on: SF-295
[9] = tested on: 786-0
[10] = tested on: EKVX
[11] = tested on: SW-620
[12] = tested on: UACC-62
[13] = tested on: RPMI-8226
[14] = tested on: Malme-3M
[15] = tested on: HCT-15
[16] = tested on: UO-31
[17] = tested on: NCI-H522
[18] = tested on: SR

Measured: GI50

Nc1nc(N)c(-c2ccccc2)c(C(=O)Nc2ccc(Cl)c(Cl)c2)n1
> 100 µM: [15]
inactive: [1] > 100 µM | [2] > 100 µM | [3] > 100 µM | [4] > 100 µM | [5] > 100 µM | [6] > 100 µM | [7] > 100 µM | [8] > 100 µM | [9] > 100 µM | [10] > 100 µM | [11] > 100 µM | [12] > 100 µM | [13] 46.8 µM | [14] > 100 µM | [16] > 100 µM

Cc1cccc(/C=N/C23CC4CC(CC(C4)C2)C3)c1
> 100 µM: [15]
inactive: [1] > 100 µM | [2] > 100 µM | [3] > 100 µM | [4] > 100 µM | [5] > 100 µM | [6] > 100 µM | [7] > 100 µM | [8] > 100 µM | [9] > 100 µM | [10] > 100 µM | [11] > 100 µM | [12] > 100 µM | [13] > 100 µM | [17] > 100 µM | [14] > 100 µM | [16] > 100 µM

Cc1ccc2c(c1)CN1c3ccc(C)cc3CN2C1c1ccccc1O
23.6 µM: [15]
inactive: [1] 26.2 µM | [2] 81.7 µM | [3] 29.9 µM | [5] 35.2 µM | [6] 43.3 µM | [7] 27.3 µM | [8] 46.8 µM | [9] 42.5 µM | [10] 7.19 µM | [11] 61.9 µM | [12] 25.1 µM | [13] 19.5 µM | [17] 65.6 µM | [18] 11.7 µM | [14] > 100 µM | [16] 24.9 µM

O=C1CC2CC=C[C@H]3c4cc5c(cc4C(=O)N1C23)OCO5 (some centres undefined)
inactive: [1] > 50 µM | [2] > 50 µM | [3] > 50 µM | [5] > 50 µM | [6] > 50 µM | [7] > 50 µM | [8] > 50 µM | [9] > 50 µM | [10] > 50 µM | [11] > 50 µM | [12] > 50 µM | [13] > 50 µM | [17] > 50 µM | [14] > 50 µM | [16] > 50 µM
> 50 µM: [15]

CCOC(=O)[C@@]12C(C)=CC(=O)O[C@]1(C)C[C@H]2C#N
inactive: [1] > 100 µM | [2] > 100 µM | [3] > 100 µM | [4] > 100 µM | [5] > 100 µM | [6] > 100 µM | [7] > 100 µM | [8] > 100 µM | [9] > 100 µM | [10] > 100 µM | [11] > 100 µM | [12] > 100 µM | [13] > 100 µM | [14] > 100 µM | [16] > 100 µM
> 100 µM: [15]

COc1cc(Br)c(CC2NCCc3cc(OC)c(OC)cc32)cc1OC (centres undefined)
inactive: [1] 83.4 µM | [2] > 100 µM | [3] 94.4 µM | [4] 76 µM | [5] 46.6 µM | [6] 73.6 µM | [7] 20.9 µM | [8] 12 µM | [9] 93.5 µM | [10] > 100 µM | [11] > 100 µM | [12] 77.4 µM | [13] 18.8 µM | [17] > 100 µM | [18] 50.9 µM | [14] 58.5 µM | [16] 25.7 µM

COC(=O)/C(C)=C/[N+](=O)[O-]
13.5 µM: [15]
inactive: [1] 16.3 µM | [2] 23.1 µM | [3] 20.7 µM | [4] 23.3 µM | [5] 11 µM | [6] 18.5 µM | [7] 19.8 µM | [8] 16.6 µM | [9] 17.7 µM | [10] 15.9 µM | [11] 5.38 µM | [12] 17.9 µM | [13] 2.77 µM | [14] 17.3 µM | [16] 18.9 µM

O=c1c2ccccc2nc(-c2cccc(Cl)c2)n1NC1OC(CO)C(O)C(O)C1O (centres undefined)
inactive: [1] > 100 µM | [2] > 100 µM | [3] > 100 µM | [4] > 100 µM | [5] > 100 µM | [6] > 100 µM | [7] > 100 µM | [8] > 100 µM | [9] > 100 µM | [10] > 100 µM | [11] > 100 µM | [12] > 100 µM | [13] > 100 µM | [17] > 100 µM | [14] > 100 µM | [16] > 100 µM
> 100 µM: [15]

O=c1[nH]c(=O)n(C2CC(O)C(CO)O2)cc1C#Cc1ccc(C(F)(F)F)cc1 (centres undefined)
> 100 µM: [15]
inactive: [1] > 100 µM | [2] > 100 µM | [3] > 100 µM | [5] > 100 µM | [6] > 100 µM | [7] > 100 µM | [8] > 100 µM | [9] > 100 µM | [10] 63.2 µM | [11] > 100 µM | [12] > 100 µM | [13] > 100 µM | [17] > 100 µM | [18] > 100 µM | [14] > 100 µM | [16] > 100 µM

COc1ccccc1NS(=O)(=O)c1cc(C(C)(C)C)ccc1OCCOc1ccc(C(C)(C)C)cc1S(=O)(=O)Nc1ccccc1OC
> 100 µM: [15]
inactive: [1] > 100 µM | [2] > 100 µM | [3] > 100 µM | [4] > 100 µM | [5] > 100 µM | [6] 45.4 µM | [7] > 100 µM | [8] > 100 µM | [9] > 100 µM | [10] > 100 µM | [11] > 100 µM | [12] > 100 µM | [13] > 100 µM | [14] > 100 µM | [16] > 100 µM

O=C1C=C(Nc2ccc(Cl)cc2C(=O)c2ccccc2)c2ccccc2C1=O
inactive: [1] > 100 µM | [2] > 100 µM | [3] > 100 µM | [4] > 100 µM | [5] > 100 µM | [6] > 100 µM | [7] > 100 µM | [8] > 100 µM | [9] > 100 µM | [10] > 100 µM | [11] > 100 µM | [12] > 100 µM | [17] > 100 µM | [14] > 100 µM | [16] > 100 µM
> 100 µM: [15]

C[C@]12CCC(=O)C=C1CC[C@@H]1C2CC[C@]2(C)Nc3[nH]ncc3CC12 (some centres undefined)
> 100 µM: [15]
inactive: [1] > 100 µM | [4] > 100 µM | [5] > 100 µM | [6] > 100 µM | [7] > 100 µM | [8] 94.2 µM | [9] > 100 µM | [10] 77.4 µM | [11] > 100 µM | [12] > 100 µM | [13] > 100 µM | [14] > 100 µM | [16] > 100 µM

Cc1ccc(-c2c(C#N)c(O)n(NS(=O)(=O)c3ccccc3)c(=O)c2C#N)cc1
> 100 µM: [15]
inactive: [1] > 100 µM | [2] > 100 µM | [3] > 100 µM | [4] > 100 µM | [5] > 100 µM | [6] > 100 µM | [8] > 100 µM | [9] > 100 µM | [10] > 100 µM | [11] > 100 µM | [12] > 100 µM | [17] > 100 µM | [14] > 100 µM
